Results as given in ChEMBL document CHEMBL1201862, “PubChem BioAssay data set” (2004).
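Each compound was tested at five concentrations against cells in 96-well plates for 48 hours. Abbreviation: GI50, concentration required for 50% inhibition of growth.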 Calls of active or inactive are those of the source. Cut-off read from the data, not from the text of the source: active = GI50 up to about 1.1 µM and inactive = higher.

What was measured:
Experiment in all cases: DTP human tumour cell line panel, 48 h
[1] = tested on: RXF 393
[2] = tested on: SF-295
[3] = tested on: HCT-116
[4] = tested on: SF-539
[5] = tested on: NCI/ADR-RES
[6] = tested on: OVCAR-3
[7] = tested on: LOX IMVI
[8] = tested on: M14
[9] = tested on: A549
[10] = tested on: SK-MEL-2
[11] = tested on: KM12
[12] = tested on: 786-0
[13] = tested on: UO-31
[14] = tested on: T47D
[15] = tested on: SW-620
[16] = tested on: RPMI-8226
[17] = tested on: MDA-N
[18] = tested on: U-251
[19] = tested on: COLO 205
[20] = tested on: MDA-MB-231
[21] = tested on: UACC-62
[22] = tested on: PC-3
[23] = tested on: A498
[24] = tested on: HCC 2998
[25] = tested on: OVCAR-4
[26] = tested on: SNB-75
[27] = tested on: K562
[28] = tested on: IGROV-1
[29] = tested on: DU-145
[30] = tested on: HT-29
[31] = tested on: EKVX
[32] = tested on: HOP-92
[33] = tested on: TK-10
[34] = tested on: OVCAR-5
[35] = tested on: CAKI-1
[36] = tested on: SK-MEL-28
[37] = tested on: SK-OV-3
[38] = tested on: OVCAR-8
[39] = tested on: Malme-3M
[40] = tested on: UACC-257
[41] = tested on: NCI-H522
[42] = tested on: CCRF-CEM
[43] = tested on: MDA-MB-435
[44] = tested on: NCI-H226
[45] = tested on: HCT-15
[46] = tested on: MCF7
[47] = tested on: NCI-H23
[48] = tested on: SNB-19
[49] = tested on: SK-MEL-5
[50] = tested on: HOP-62
[51] = tested on: HL-60
[52] = tested on: SN12C
[53] = tested on: ACHN
[54] = tested on: MOLT-4

Measured: GI50

Cc1nc(=O)[nH]c2c1C(=O)N(C(C)C)C(NC(C)C)S2 (centres undefined)
inactive: [1] > 100 µM | [2] > 100 µM | [3] > 100 µM | [4] > 100 µM | [5] > 100 µM | [6] 26.9 µM | [7] 83.6 µM | [8] > 100 µM | [9] > 100 µM | [10] > 100 µM | [11] > 100 µM | [12] > 100 µM | [13] > 100 µM | [14] 90.2 µM | [15] > 100 µM | [16] > 100 µM | [17] > 100 µM | [18] > 100 µM | [19] > 100 µM | [20] > 100 µM | [21] 76 µM | [22] 41.2 µM | [23] > 100 µM | [24] > 100 µM | [25] 57.9 µM | [26] > 100 µM | [27] > 100 µM | [28] > 100 µM | [29] > 100 µM | [30] > 100 µM | [31] > 100 µM | [32] 97.7 µM | [33] > 100 µM | [34] > 100 µM | [35] 55.1 µM | [36] > 100 µM | [37] > 100 µM | [38] > 100 µM | [39] 57.7 µM | [40] > 100 µM | [41] 47.2 µM | [42] > 100 µM | [43] > 100 µM | [44] > 100 µM | [46] > 100 µM | [47] > 100 µM | [48] > 100 µM | [49] > 100 µM | [50] > 100 µM | [51] > 100 µM | [52] > 100 µM | [53] > 100 µM | [54] > 100 µM
93.8 µM: [45]
